Reference: patent US11440923B2, “Substituted macrocyclic indole derivatives” (Bayer Aktiengesellschaft, priority 2017, dated 2022)
Structures can show the parent of a compound that is named as a salt. Where two headings read alike, the source gives them in different places.

Experiments:
Assay type in all cases: cell-based
[1] = system: SUDHL5 cells; assay: Induction of caspase-3/7 activity in SUDHL5 cells (Assay 4); settings: read-out: Caspase SUDHL5 EC50 (median), caspase-3/7 induction, 3 h
Procedure, shortened: (§1)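 Caspase-3/7 activity measured in DLBCL lines after 3 h compound exposure at 37 °C, following overnight plating; Caspase-Glo 3/7 luminescence read after 1 h at 37 °C. Medium-only background subtracted, values normalized to mean of DMSO-treated cells.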

[2] = system: SUDHL10 cells; assay: Induction of caspase-3/7 activity in SUDHL10 cells (Assay 4); settings: read-out: Caspase SUDHL10 EC50 (median), caspase-3/7 induction, 3 h
Procedure, shortened: as §1

[3] = system: SUDHL5 cells; assay: Induction of cytotoxicity in SUDHL5 cells (Assay 6); settings: 5 h, CellTiter-Glo, read-out: Cytotox SUDHL5 IC50 (median)
Procedure, shortened: (§2)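 Overnight seeding, 37 °C; 5 h compound exposure; CellTiter-Glo, 15 min RT shake; luminescence read. No-cell medium control.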

[4] = system: SUDHL10 cells; assay: Induction of cytotoxicity in SUDHL10 cells (Assay 6); settings: 5 h, CellTiter-Glo, read-out: Cytotox SUDHL10 IC50 (median)
Procedure, shortened: as §2

[5] = system: SUDHL5 cells; assay: Antiproliferation assay SUDHL5 (Assay 7); settings: read-out: Antiproli SUDHL5 IC50 (median), 72 h, CellTiter-Glo
Procedure, shortened: (§3)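 Cells are plated alongside a time-zero reference plate and held overnight at 37 °C. Treated plates are incubated 72 h, then ATP-based luminescence (CellTiter-Glo) is read. IC50 uses day 0 as baseline and DMSO as untreated control.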

[6] = system: AMO-1 cells; assay: Antiproliferation assay AMO-1 (Assay 7); settings: read-out: Antiproli AMO-1 IC50 median, 72 h, CellTiter-Glo
Procedure, shortened: as §3

[7] = system: HMC-1-8 cells; assay: Antiproliferation assay HMC-1-8 (Assay 7)
Procedure, shortened: as §3

[8] = system: SNU-389 cells; assay: Antiproliferation assay SNU-389 (Assay 7); settings: 72 h, read-out: Antiproli SNU-389 IC50
Protocol: (§4) Assessment of the Anti-Proliferative Effect of Compounds in Different Cell Lines
(§5) The impact of compounds on the proliferation of different cell lines was assessed using the CellTiter-Glo® Luminescent Cell Viability reagent from Promega (G7573).
(§6) In parallel, cells were plated in a reference (day 0) plate for time zero determination. Cells were incubated in a humidified incubator at 37° C. overnight.
(§7) Rim wells were excluded. The cells were incubated for 72 h hours in a humidified incubator at 37° C. The day 0 plate was measured by adding 30 μL/well of CTG solution (CellTiter-Glo® Luminescent Cell Viability reagent, Promega G7573) to time zero wells in the reference plate followed by a 10 minutes incubation and luminescence reading at 0.1 ms. using the PHERAstar FS microplate reader (BMG Labtech).
(§8) After 72 h incubation, the treated plates were measured in the same way as the day 0 plate mentioned above. The Bella DRC Master Sheet was used to calculate IC50s, with CI=day 0 values and C0=DMSO control values.

[9] = system: SK-MEL-2 cells; assay: Antiproliferation assay SK-MEL-2 (Assay 7); settings: Homo sapiens, read-out: Antiproli SK-MEL-2 IC50 median
Protocol: as §4, §5, §6, §7, §8

[10] = system: SNU-16 cells; assay: Antiproliferation assay SNU-16 (Assay 7); settings: Homo sapiens, read-out: Antiproli SNU-16 IC50 median
Protocol: as §4, §5, §6, §7, §8

[11] = system: A-431 cells; assay: Antiproliferation assay A-431 (Assay 7); settings: Homo sapiens, read-out: Antiproli A-431 IC50 median
Protocol: as §4, §5, §6, §7, §8

[12] = system: PA-1 cells; assay: Antiproliferation assay PA-1 (Assay 7); settings: Homo sapiens, read-out: Antiproli PA-1 IC50 median
Protocol: as §4, §5, §6, §7, §8

[13] = system: DMS-114 cells; assay: Antiproliferation assay DMS-114 (Assay 7); settings: Homo sapiens, read-out: Antiproli DM-S114 IC50 median
Protocol: as §4, §5, §6, §7, §8

CCc1c2c(nn1C)C(CCN1CCN(C)CC1)OCCCCn1c(C(=O)O)c(CCCOc3cccc4cc(F)ccc34)c3ccc(Cl)c-2c31 (single isomer, unassigned; stereoisomer 1) [Example 69, (+)-4-chloro-3-ethyl-7-{3-[(6-fluoronaphthalen-1-yl)oxy]propyl}-2-methyl-15-[2-(4-methylpiperazin-1-yl)ethyl]-2,10,11,12,13,15-hexahydropyrazolo[4′,3′:9,10][1,6]oxazacycloundecino[8,7,6-hi]indole-8-carboxylic Acid—N-ethylethanamine Salt (Stereoisomer 1)]
EC50 [1]: 250 nM
EC50 [2]: 150 nM
IC50 [3]: 310 nM
IC50 [4]: 300 nM
IC50 [5]: 240 nM
IC50 [6]: 212 nM
IC50 ([7]; read-out: Antiproli HMC-1-8 IC50 median; 72 h, CellTiter-Glo): 4460 nM
IC50 [8]: 2410 nM
IC50 ([9]; SK-MEL-2, 72 h): 1810 nM
IC50 ([10]; SNU-16, 72 h): 1490 nM
IC50 ([11]; A-431, 72 h): 1660 nM
IC50 ([12]; PA-1, 72 h): 795 nM
IC50 ([13]; DMS-114, 72 h): 762 nM

CCc1c2c(nn1C)C(CCN1CCC(F)(F)C1)OCCCCn1c(C(=O)O)c(CCCOc3cccc4cc(F)ccc34)c3ccc(Cl)c-2c31 (single isomer, unassigned; enantiomer 1) [Example 58, 4-chloro-15-[2-(3,3-difluoropyrrolidin-1-yl)ethyl]-3-ethyl-7-{3-[(6-fluoronaphthalen-1-yl)oxy]propyl}-2-methyl-2,10,11,12,13,15-hexahydropyrazolo[4′,3′:9,10][1,6]oxazacycloundecino[8,7,6-hi]indole-8-carboxylic Acid (Enantiomer 1)]
EC50 ([1]; Homo sapiens, SU-DHL-5, 3 h): 26 nM
EC50 ([2]; Homo sapiens, SU-DHL10, 3 h): 23 nM
IC50 ([3]; Homo sapiens, SU-DHL-5, 5 h): 28 nM
IC50 ([4]; Homo sapiens, SU-DHL10, 5 h): 43 nM
IC50 ([5]; Homo sapiens, SU-DHL-5, 72 h): 29 nM
IC50 ([6]; Homo sapiens, AMO1, 72 h): 19.4 nM
IC50 ([7]; 72 h, CellTiter-Glo, read-out: Antiproli HMC-1-8 IC50 median): 328 nM
IC50 ([8]; CellTiter-Glo): 223 nM
IC50 ([9]; SK-MEL-2, 72 h, CellTiter-Glo): 728 nM
IC50 ([10]; SNU-16, 72 h, CellTiter-Glo): 135 nM
IC50 ([11]; A-431, 72 h, CellTiter-Glo): 486 nM
IC50 ([12]; PA-1, 72 h, CellTiter-Glo): 110 nM
IC50 ([13]; DMS-114 cells, 72 h, CellTiter-Glo): 81.1 nM
